Read-outs that look alike come from different tables or passages of the source.
Key:
HeLa [1] = conditions: most active derivatives published earlier; read-out: Cell Line, IC50 [ μM] HeLa; cited from earlier work
KB [2] = conditions: most active derivatives published earlier; read-out: Cell Line, IC50 [ μM] KB; cited from earlier work
MCF-7 [3] = conditions: most active derivatives published earlier; read-out: Cell Line, IC50 [ μM] MCF-7; cited from earlier work
A-549 = assay: MTT assay, A-549; type: cell-based; conditions: for IC50: Homo sapiens, A549, MTT assay, A-549 lung carcinoma, (±s) standard deviation; for Selectivity Index A-549: IC50 for normal cell line (HDF)/IC50 for A-549
HeLa [4] = assay: MTT assay, HeLa; type: cell-based; conditions: for IC50: Homo sapiens, MTT assay, HeLa cervix carcinoma, (±s) standard deviation; for Selectivity Index HeLa: IC50 for normal cell line (HDF)/IC50 for HeLa
[5] = test system: HDF (normal fibroblast cell line); assay: MTT assay, HDF; type: cell-based, human; conditions: for IC50: Homo sapiens, Fibroblast, MTT assay, HDF normal fibroblast cell line, (±s) standard deviation
MCF-7 [6] = assay: MTT assay, MCF-7; type: cell-based; conditions: for IC50: Homo sapiens, MCF7, MTT assay, MCF-7 breast carcinoma, (±s) standard deviation; for Selectivity Index MCF-7: IC50 for normal cell line (HDF)/IC50 for MCF-7
KB [7] = assay: MTT assay, KB; type: cell-based; conditions: for IC50: Homo sapiens, MTT assay, KB nasopharynx carcinoma, (±s) standard deviation; for Selectivity Index KB: IC50 for normal cell line (HDF)/IC50 for KB
[8] = test system: HeLa, KB, MCF-7, A-549 and HDF cell lines; assay: MTT assay, statements over several tested cell lines; type: cell-based; conditions: summary over the tested cell lines; read-out: IC50 values for the tested cell lines (range or summary)
U-87MG cells = assay: Apoptosis assay (DNA fragmentation), U-87MG; type: cell-based
From the text: The necrosis process induced by all the tested compounds was very small.

[9] = ratio of IC50 values vs oleanolic acid (1)

Compound	IC50 (HeLa [1])	IC50 (KB [2])	IC50 (MCF-7 [3])	IC50 (A-549)	Selectivity Index A-549 (A-549)	IC50 (HeLa [4])	Selectivity Index HeLa (HeLa [4])	IC50 [5]	IC50 (MCF-7 [6])	Selectivity Index MCF-7 (MCF-7 [6])	IC50 (KB [7])	Selectivity Index KB (KB [7])	IC50 [8]	fold as active as OA (1), A-549 (A-549; [9])	fold as active as OA (1), HeLa (HeLa [4]; [9])	fold as active as OA (1), HDF ([5]; ratio of IC50 values vs oleanolic acid (1), normal cell line)	increase in DNA fragmentation (U-87MG cells; 0.1 µg/mL)	increase in DNA fragmentation (U-87MG cells; 1.0 µg/mL)	fold as active as OA (1), MCF-7 (MCF-7 [6]; [9])	fold as active as OA (1), KB (KB [7]; [9])
CCC(=O)ON=C1C[C@@H]2[C@@]3(C)CC[C@H](OC(C)=O)C(C)(C)[C@@H]3CC[C@@]2(C)[C@]2(C)CC[C@@]3(C(=O)OC)CCC(C)(C)C[C@H]3[C@@H]12 [8d [22]]	1.87 µM	0.72 µM	2.13 µM	–	–	–	–	–	–	–	–	–	–	–	–	–	–	–	–	–
COC(=O)C12CCC(C)(C)CC1C1C(=NOC(=O)c3ccccc3[N+](=O)[O-])CC3C4(C)CCC(OC(C)=O)C(C)(C)C4CCC3(C)C1(C)CC2 (stereo not drawn) [8e [22]]	9.84 µM	> 10 µM	9.28 µM	–	–	–	–	–	–	–	–	–	–	–	–	–	–	–	–	–
COC(=O)C12CCC(C)(C)CC1C1=CC(=O)C3C4(C)CCC(=NO)C(C)(C)C4CCC3(C)C1(C)CC2 (stereo not drawn) [Compound 3]	5.03 µM	6.19 µM	> 10 µM	63 µM	0.97	125 µM	0.49	61 µM	48.4 µM	1.26	60.3 µM	1.01	–	–	–	–	–	–	–	–
CC1(C)CCC2(C(=O)N3CCOCC3)CCC3(C)C(=CCC4C5(C)CCC(=NO)C(C)(C)C5CCC43C)C2C1 (stereo not drawn) [Compound 4]	1.8 µM	1.74 µM	1.6 µM	7.29 µM	1.91	8.72 µM	1.60	13.9 µM	7.42 µM	1.88	8.72 µM	1.60	7 to 8 µM	–	–	–	–	–	–	–
COC(=O)[C@]12CCC(C)(C)CC1C1=CCC3[C@@]4(C)CC/C(=N\OC(=O)c5cc([N+](=O)[O-])cc([N+](=O)[O-])c5)C(C)(C)C4CC[C@@]3(C)[C@]1(C)CC2 (stereo partly drawn) [Compound 5g, 3-(3′,5′-Dinitro)benzoxyiminoolean-12-en-28-oic acid methyl ester]	–	–	–	4.82 µM	1.29	4.19 µM	1.48	6.22 µM	5.18 µM	1.20	4.61 µM	1.35	4.19 to 8.98 µM	~2 fold	~3 fold	~3 fold	2.5 fold	4.2 fold	~3 fold	3.2 fold
